Experimental data reported in patent US4444776A, “Dipyrido (4,3-B) (3,4-F) indoles, process for obtaining them, therapeutical use and pharmaceutical compositions” (priority 1977, dated 1984).

Tested on: Friend leukemia virus
Test: Test 2: viro-induced Friend leukemia (Table II)
Format: in vivo, DBA2 mice
Conditions: for mean spleen weight (range): 21 days after virus; for ILS % / Weight of the spleens on the 21st day / Mean survival time (first-last death): VFA 1/250, 5 hrs after the virus
Source text: The protective power of the compounds according to the invention have also been sought on the Friend viro-induced leukemia (J. Exp. Med. 1957-105-307-318) and it has been determined that the compounds according to the invention are antiviral and antitumoral agents in lower animals.
Test 2. Viro-induced Leukemia: Friend leukemia
The protective power of the compounds according to the invention was sought on Friend leukemia, inoculated into DBA2 mice aged from 5-6 weeks. The viral inoculum was produced from a homogenate of leukemic spleen (p/volume) diluted to 1/250 in isotonic phosphate buffer without Ca^++ nor Mg^++ (PBS), corresponding to 100 SD 50 (i.e. to the dose of virus which induces a splenomegaly in 50% of the inoculated mice).
The virus was injected by the IP route and in a volume of 0.2 ml. The product to be tested was injected 5 hours after the virus or 1 day after the virus at the dose indicated in a volume of 0.1 ml (IP route). Each group of twenty control mice received the virus and a placebo or the product to be tested, 10 mice were sacrified on the 21st day, and their spleen removed and weighed. The mice were considered as leukemic when the weight of their spleen exceed 200 mg. For the 10 mice, the life span of the animals was determined.

SMILES: Cc1c2ccncc2c(C)c2c1[nH]c1ccncc12 [Example 1, 5,11-dimethyl dipyrido [4,3-b][3,4-f] indole]
- mean spleen weight (range) (25 mg/kg): 1,803 (718-2,635) mg
- mean spleen weight (range) (50 mg/kg): 960 (373-1,230) mg
- ILS % (0.1 mg): 59.5%
- Weight of the spleens on the 21st day (0.1 mg): 2013 mg
- Mean survival time (first-last death) (0.1 mg, IP): 47.6 (26-78) Days
- ILS % (0.5 mg): 14.6%
- Mean survival time (first-last death) (0.5 mg): 34.2 (22.54) Days
- Weight of the spleens on the 21st day (0.5 mg): 1803 mg
- ILS % (1 mg): 39.7%
- Mean survival time (first-last death) (1 mg): 41.7 (14-81) Days
- Weight of the spleens on the 21st day (1 mg): 959,6 mg
